In brackets after ≈: the same amount, converted by molar mass.
Key:
HepG2 cells [1] = tested on: HepG2 cells; design: method as in PMID 26370984; settings: HepG2, 72 h; cited from earlier work
HepG2 line = tested on: HepG2 line; design: method as in PMID 26151733; settings: HepG2, 22.11 μg/mL, same phase = G0/G1; cited from earlier work
HepG2 cells [2] = assay: Muse Annexin V & Dead Cell apoptosis assay; type: cell-based, human; settings: HepG2, staurosporine 1 μg/mL (positive control)
Method: (§1) A total of 1.5 × 10^5 cells were seeded per well in 24-well plates for each cell line (quadruplicates for three different populations of each cell line). […] Negative control populations were incubated only with the appropriate culture medium. The samples were analyzed in the Muse^TM Cell Analyzer (Merck-Millipore®, Burlington, MA, USA). Phosphatidylserine (PS) is a phospholipid that is usually found in the inner half of the cytoplasmic membrane, but is outsourced when loss of integrity occurs in the apoptosis process. The method is based on the recognition and binding to the PS exposed by annexin V protein, labeled with a fluorescent substance to detect the interaction and quantify it. We used the Muse^TM Annexin V & Dead Cell kit purchased from Millipore (Billerica, MA, USA), which provides the percentage of viable cells, apoptotic and affected by necrosis.

WRL68 cells = assay: Muse Annexin V & Dead Cell apoptosis assay; type: cell-based, human; settings: WRL68, staurosporine 1 μg/mL (positive control)
Method: as §1

In the case of `CC1(C)CC[C@]2(C(=O)O)CC[C@]3(C)C(=CC[C@@H]4[C@@]5(C)C[C@@H](O)[C@H](O)C(C)(C)[C@@H]5CC[C@]43C)[C@@H]2C1` [maslinic acid], the IC50 (HepG2 cells [1]) is given as 47 µg/mL (≈ 99.4 µM).
In the case of `CC1(C)CC[C@]2(C(=O)O)CC[C@]3(C)C(=CC[C@@H]4[C@@]5(C)CC[C@H](O)C(C)(C)[C@@H]5CC[C@]43C)[C@@H]2C1` [oleanolic acid], the cell cycle arrest (HepG2 line) is listed as “arrest in the same phase of the cycle”.
With `CN[C@@H]1C[C@H]2O[C@@](C)([C@@H]1OC)n1c3ccccc3c3c4c(c5c6ccccc6n2c5c31)C(=O)NC4` [staurosporine, reference compound] the “change in apoptotic cells vs control” value (HepG2 cells [2]) was “did not lead to an increase in apoptotic cells”, the “change in number of apoptotic and necrotic cells vs control” value (WRL68 cells) was “equally significant increase” and the “change in number of viable cells vs control” value (WRL68 cells) was “significant decrease”.

From paper PMC7571068, “Antiproliferative and Pro-Apoptotic Effect of Uvaol in Human Hepatocarcinoma HepG2 Cells by Affecting G0/G1 Cell Cycle Arrest, ROS Production and AKT/PI3K Signaling Pathway” (Molecules, 2020)
